US5171851A, “Imidazole substituted benzoxazine or benzothiazine derivatives” (Dong-A Pharm. Co., Ltd., priority 1990, dated 1992)
Read-outs that look alike come from different tables or passages of the source.

Key:
anesthetized cats = test: cardiotonic effect on anesthetized cats; assay type: in vivo, cat; conditions: Felis catus; for change in vivo at 0.01 mg/kg: 0.01 mg/Kg iv; for change in vivo at 0.03 mg/kg: 0.03 mg/Kg iv; for change in vivo at 0.1 mg/kg: 0.1 mg/Kg iv
Experimental: Determination of cardiotonic effect on anesthetized cats: Male cats weighing about 3 kg were anesthetized with sodium pentobarbital (30 mg/kg, i.p.). The same anesthetic was infused intravenously at the does of 4 mg/kg/hr in order to maintain the anesthetic state and mechanically ventilated through a cuffed endotracheal tube, chest was opened by a midline incision and a catheter for measuring left ventricular pressure was inserted through apex into left ventricle and the left ventricular pressure was measured. LVdP/dt was determined by use of diffentiator from the left ventricular pressure. Systemic blood pressure was measured by the left femoral artery by a pressure transducer and heart rate was measured by a cardiotachometer triggered by blood pressure pulses. Test compound was injected into the femoral vein by use of cannule. After completion of the surgical procedures, the cats were allowed to recover about 30 minutes before drug administration. These compounds were dissolved in 0.9% physiological saline and diluted with saline. Solvent such as DMSO or DMF was also used, if necessary. Test compound of 0.1 ml/kg was used. Detailed method was reporated in J. Med. Chem. 30. 1279-87(1987).

[1] = test system: blood-perfused sino-atrial preparation; test: sinus rate on blood-perfused sino-atrial preparation; parameters: species or system dog; conditions: for activation at 0.001 mg / activation at 0.003 mg / activation at 0.01 mg / activation at 0.03 mg: Canis lupus familiaris, read-out: change of sinus rate (%); for activation at 0.003 mg: dose 3.0 ug; for activation at 0.01 mg: dose 10.0 ug; for activation at 0.03 mg: dose 30.0 ug
Experimental: Determination of sinus rate on blood-perfused sino-atrial preparation: Mongrel gods of either sex weighing 7-12 kg were anesthetized with sodium pentoba rbital (30 mg/kg i.v.). Heparin ob 1000 unit/kg was administered to each animal intravenously and the animals were exsanguinated. Heart was removed and put in Krebs-Henseleit solution. Catheter was inserted into blood vessel between right coronary artery and SA nodes. Right atrium and catheter were together removed. Blood supplied from carotid artery of donor dog of either sex weighing 15-25 kg, was supplied to blood vessel cather from right coronary artery and SA node under constant blood pressure of 100 mmHG by use of Peristaltic pump. The resting tension of right atrial muscle was made to 2g. The sinus rate triggered by spontaneous contraction of atrial muscle was determined on Narco physiograph Narcotrace 4). Detailed method was reported by S. Chiba, et al. in Japanese Pharmacology 25, 433-439(1975). Doses of test compounds were injected into flowing blood in gum tube connected to the near part of the catheter inserted into right coronary artery. The effects on sinus rate were shown as percent compared with the sinus ratio prior to the injection of the test compounds.

[2] = test system: blood perfused papillary muscle preparation; test: contractile power on blood perfused papillary muscle preparation; parameters: species or system dog; conditions: for activation at 0.001 mg / activation at 0.003 mg / activation at 0.01 mg / activation at 0.03 mg: Canis lupus familiaris, read-out: change of contractivity (%); for activation at 0.001 mg: dose 1.0 ug; for activation at 0.003 mg: dose 3.0 ug; for activation at 0.01 mg: dose 10.0 ug; for activation at 0.03 mg: dose 30.0 ug; for ED 30 (developed tension of papillary muscle): least-square method
Experimental: Determination of contractile power on blood perfused papillary muscle preparation:
Dogs of either sex weighing 7-12 kg were anesthetized with sodium pentobarbital (30 mg/kg, i.v.). Heparin of 1000 unit/kg was administered to each animal intravenously. The animals were exsanguinated and heart was removed. The preparation was perfused through the cannulated anterior septal artery (ASA) with arterial blood from a donor dog at constant pressure of about […]. Donor dogs were anesthetized with sodium pentobarbital (30 mg/kg, i.v.). Heparin of 1000 units/kg was administered intravenously. The papillary muscle was stimulated with rectangular pulses of 5- ms duration and about 1.5 times the threshold voltage at a rate of 120 stimuli/min through bipolar electrodes. Resting tension was made to 2 g. The developed tension of papillary muscle was determined by Isometric tresducer. Detailed method was reporated by Matsumoto in Am J. Physiol. 218, 1459-1463 (1970). Test compound at the doses of 10-30 ul was injected in flowing blood in the gum tube connected to catheter. The inotropic effect of the test compounds was shown by change percent of developed tension compared with that prior to the administration of the test compounds.

Compound | change in vivo at 0.01 mg/kg (anesthetized cats; read-out: HR (%)) [%] | change in vivo at 0.01 mg/kg (anesthetized cats; read-out: LV dp/dt (%)) [%] | change in vivo at 0.01 mg/kg (anesthetized cats; read-out: LVP (%)) [%] | change in vivo at 0.01 mg/kg (anesthetized cats; read-out: SBP (%)) [%] | change in vivo at 0.01 mg/kg (anesthetized cats; read-out: dBP) [%] | change in vivo at 0.01 mg/kg (anesthetized cats; read-out: mBP (%)) [%] | change in vivo at 0.03 mg/kg (anesthetized cats; read-out: HR (%)) [%] | change in vivo at 0.03 mg/kg (anesthetized cats; read-out: LV dp/dt (%)) [%] | change in vivo at 0.03 mg/kg (anesthetized cats; read-out: LVP (%)) [%] | change in vivo at 0.03 mg/kg (anesthetized cats; read-out: SBP (%)) [%] | change in vivo at 0.03 mg/kg (anesthetized cats; read-out: dBP) [%] | change in vivo at 0.03 mg/kg (anesthetized cats; read-out: mBP (%)) [%] | change in vivo at 0.1 mg/kg (anesthetized cats; read-out: HR (%)) [%] | change in vivo at 0.1 mg/kg (anesthetized cats; read-out: LV dp/dt (%)) [%] | change in vivo at 0.1 mg/kg (anesthetized cats; read-out: LVP (%)) [%] | change in vivo at 0.1 mg/kg (anesthetized cats; read-out: SBP (%)) [%] | change in vivo at 0.1 mg/kg (anesthetized cats; read-out: dBP) [%] | change in vivo at 0.1 mg/kg (anesthetized cats; read-out: mBP (%)) [%] | activation at 0.003 mg [1] [%] | change of sinus rate (%) ([1]; at the ED 30 dose) | further results
Cc1cn(-c2cc(C)c3c(c2)CSC(=S)N3)cn1 [8-methyl-6-(4-methylimidazol-1-yl)-(4H)-3,1-benzothiazin-2-thione] | 0 | 6 | 1.2 | -2.3 | -5.1 | -3.3 | 1.6 | 20 | 1.8 | -2.3 | -7.7 | -5.3 | 10.9 | 53.3 | 2 | -3.1 | -11.5 | -7.6 |  |  | 
Cc1cn(-c2ccc3c(c2)COC(=O)N3)c(C)n1 [6-(2,4-dimethylimidazol-1-yl)-(4H)-3,1-benzoxazin-2-one] |  |  |  |  |  |  |  |  |  |  |  |  |  |  |  |  |  |  | 0 | +2.56% | activation at 0.001 mg ([1]; dose 1.0 ug): 0%; activation at 0.01 mg [1]: 0%; activation at 0.03 mg [1]: 1.67%; activation at 0.001 mg [2]: 0%; activation at 0.003 mg [2]: 3.7%; activation at 0.01 mg [2]: 10.3%; activation at 0.03 mg [2]: 15.2%
CCc1nc(C)cn1-c1ccc2c(c1)COC(=O)N2 [6-(2-ethyl-4-methylimidazol-1-yl)-(4H)-3,1-benzoxazin-2-one] |  |  |  |  |  |  |  |  |  |  |  |  |  |  |  |  |  |  | 0 | +6.82% | activation at 0.001 mg ([1]; dose 1.0 ug): 0%; activation at 0.01 mg [1]: 0.83%; activation at 0.03 mg [1]: 1.65%; activation at 0.001 mg [2]: 0.68%; activation at 0.003 mg [2]: 3.45%; activation at 0.01 mg [2]: 12.5%; activation at 0.03 mg [2]: 14.7%
S=C1Nc2ccc(-n3ccnc3)cc2CS1 [6-(imidazol-1-yl)-(4H)-3,1-benzothiazin-2-thione] | -1.1 | 8.3 | 2 | 2 | -3.2 | -2 | -0.8 | 16.6 | 4 | 3 | -3.3 | 0 | 0.6 | 25 | 5.7 | 3 | -7.4 | -3.6 |  |  | 
O=C1Nc2ccc(-n3ccnc3)cc2CS1 [6-(imidazol-1-yl)-(4H)-3,1-benzothiazin-2-one] | 1.6 | 0 | 0 | -2.4 | 0 | -1.2 | 4.7 | 20 | 9.9 | -4.8 | -7.8 | -5.8 | 7 | 39.6 | 18.9 | -19.1 | -19.1 | -19.6 |  |  | activation at 0.01 mg [2]: 10.7%; activation at 0.03 mg [2]: 22.7%
Cc1cn(-c2cc(C)c3c(c2)CSC(=O)N3)cn1 [8-methyl-6-(4-methylimidazol-1-yl)(4H)-3,1-benzothiazin-2-one] | 4.2 | 33.3 | 3.3 | 0 | 0 | 0 | 7.3 | 58.4 | 5.7 | -3.8 | -4 | -4.5 | 12.6 | 75 | 8.8 | -6.5 | -12 | -16.1 | 3.3 | +3.5% | change of sinus rate (%) ([1]; at the ED 30 dose, listed as 8-methyl-6-(4-methylimidazol-1-)-(4H)-3,1-benzothiazin-2-one): +7.1%; change of sinus rate (%) ([1]; dose 0.1 ug): +2.5%; change of sinus rate (%) ([1]; dose 0.3 ug): +1.6%; change of sinus rate (%) ([1]; dose 1.0 ug): +2.5%; activation at 0.003 mg [2]: 26.5%; ED 30 (developed tension of papillary muscle) [2]: 5.0 µg; ED 30 (developed tension of papillary muscle) ([2]; listed as 8-methyl-6-(4-methylimidazol-1-)-(4H)-3,1-benzothiazin-2-one): 0.6 µg
